In patent publication US8697725B2, “Tetrahydroquinoline derivatives and their pharmaceutical use” (GlaxoSmithKline LLC, priority 2009, dated 2014):
Where a name gives a salt, the structure may show the parent alone.

The molecules below were run on IL-6 (assay: Measurement of LPS Induced IL-6 Secretion from Whole Blood). Conditions: 24 h, LPS 200 ng/ml, immunoassay, read-out: pIC50, LPS induced IL-6 secretion from whole blood (converted).
Type: cell-based
Protocol: Measurement of LPS Induced IL-6 Secretion from Whole Blood
(§1) Activation of monocytic cells by agonists of toll-like receptors such as bacterial lipopolysaccharide (LPS) results in production of key inflammatory mediators including IL-6. Such pathways are widely considered to be central to the pathophysiology of a range of auto-immune and inflammatory disorders.
Compounds to be tested are diluted to give a range of appropriate concentrations of which 1 ul of the diluted stocks is added to a 96 well plate. Following addition of whole blood (130 ul) the plates are incubated at 37 degrees (5% CO2) for 30 min before the addition of 10 ul of 2.8 ug/ml LPS, diluted in complete RPMI 1640 (final concentration=200 ng/ml), to give a total volume of 140 ul per well. After further incubation for 24 hours at 37 degrees, 140 ul of PBS are added to each well. The plates are sealed, shaken for 10 minutes and then centrifuged (2500 rpm×10 min). 100 ul of the supernatant are removed and IL-6 levels assayed by immunoassay (typically by MesoScale Discovery technology) either immediately or following storage at −20 degrees. Concentration response curves for each compound was generated from the data and an IC50 value was calculated.

**Q.** `COCn1cc(-c2ccc3c(c2)[C@H](NC(=O)OC(C)C)C[C@H](C)N3C(C)=O)cn1` [Example 106, 1-Methylethyl((2S,4R)-1-acetyl-2-methyl-6-{1-[(methyloxy)methyl]-1H-pyrazol-4-yl}-1,2,3,4-tetrahydro-4-quinolinyl)carbamate] was tested. Which IC50 did it give?
**A.** ≤ 31.6 µM

**Q.** With `CC(=O)N1c2ccc(-c3c[nH]nn3)cc2[C@H](NC(=O)OC(C)C)C[C@@H]1C` [Example 65, 1-Methylethyl[(2S,4R)-1-acetyl-2-methyl-6-(1H-1,2,3-triazol-4-yl)-1,2,3,4-tetrahydro-4-quinolinyl]carbamate] as the molecule, how does the IC50 read?
**A.** ≤ 31.6 µM

**Q.** For `CC(=O)N1c2ccc(-c3ccc(CCO)cc3)cc2[C@H](NC(=O)OC(C)C)C[C@@H]1C` [Example 95, 1-Methylethyl {(2S,4R)-1-acetyl-6-[4-(2-hydroxyethyl)phenyl]-2-methyl-1,2,3,4-tetrahydro-4-quinolinyl}carbamate], which IC50 is on record?
**A.** ≤ 31.6 µM

**Q.** Which IC50 does the source give for `CC(=O)N1c2ccc(-c3cn(CCC(=O)O)cn3)cc2[C@@H](NC(=O)OC(C)C)C[C@H]1C` (racemic) [Example 99, 3-{(Cis)-4-[1-acetyl-2-methyl-4-({[(1-methylethyl)oxy]carbonyl}amino)-1,2,3,4-tetrahydro-6-quinolinyl]-1H-imidazol-1-yl}propanoic acid trifluoroacetate] here?
**A.** ≤ 31.6 µM

**Q.** How did the IC50 turn out when `CC(=O)N1c2ccc(-n3cnc(CNCCO)c3)cc2[C@@H](NC(=O)OC(C)C)C[C@H]1C` (racemic) [Example 92, 1-Methylethyl[(cis)-1-acetyl-6-(4-{[(2-hydroxyethyl)amino]methyl}-1H-imidazol-1-yl)-2-methyl-1,2,3,4-tetrahydro-4-quinolinyl]carbamate] was run?
**A.** ≤ 31.6 µM

**Q.** `CC(=O)N1c2ccc(-c3ccccc3C)cc2[C@H](NC(=O)OC(C)C)C[C@@H]1C` [Example 93, 1-Methylethyl[(2S,4R)-1-acetyl-2-methyl-6-(2-methylphenyl)-1,2,3,4-tetrahydro-4-quinolinyl]carbamate] was tested. Which IC50 did it give?
**A.** ≤ 31.6 µM

**Q.** How did the IC50 turn out when `CC(=O)N1c2ccc(-c3cnn(CC(C)(C)O)c3)cc2[C@H](NC(=O)OC(C)C)C[C@@H]1C` [Example 109, 1-Methylethyl {(2S,4R)-1-acetyl-6-[1-(2-hydroxy-2-methylpropyl)-1H-pyrazol-4-yl]-2-methyl-1,2,3,4-tetrahydro-4-quinolinyl}carbamate] was run?
**A.** ≤ 31.6 µM

**Q.** For `CC(=O)N1c2ccc(-c3ccc(N)nc3)cc2[C@H](NC(=O)OC(C)C)C[C@@H]1C` [Example 110, 1-methylethyl[(2S,4R)-1-acetyl-6-(6-amino-3-pyridinyl)-2-methyl-1,2,3,4-tetrahydro-4-quinolinyl]carbamate], which IC50 is on record?
**A.** ≤ 31.6 µM

**Q.** `CC(=O)N1c2ccc(-c3cn(CC(=O)O)nn3)cc2[C@H](NC(=O)OC(C)C)C[C@@H]1C` [Example 76, {4-[(2S,4R)-1-Acetyl-2-methyl-4-({[(1-methylethyl)oxy]carbonyl}amino)-1,2,3,4-tetrahydro-6-quinolinyl]-1H-1,2,3-triazol-1-yl}acetic acid] was tested. Which IC50 did it give?
**A.** ≤ 31.6 µM

**Q.** For `CC(=O)N1c2ccc(-c3cn(CC(=O)O)cn3)cc2[C@@H](NC(=O)OC(C)C)C[C@H]1C` (racemic) [Example 90, {4-[(Cis)-1-acetyl-2-methyl-4-({[(1-methylethyl)oxy]carbonyl}amino)-1,2,3,4-tetrahydro-6-quinolinyl]-1H-imidazol-1-yl}acetic acid trifluoroacetate], which IC50 is on record?
**A.** ≤ 31.6 µM

**Q.** `CC(=O)N1c2ccc(-c3nnc(C)s3)cc2[C@H](NC(=O)OC(C)C)C[C@@H]1C` [Example 68, 1-Methylethyl[(2S,4R)-1-acetyl-2-methyl-6-(5-methyl-1,3,4-thiadiazol-2-yl)-1,2,3,4-tetrahydro-4-quinolinyl]carbamate] was tested. Which IC50 did it give?
**A.** ≤ 31.6 µM

**Q.** Which IC50 does the source give for `CC(=O)N1c2ccc(-n3cnc(C)c3)cc2[C@H](NC(=O)OC(C)C)C[C@@H]1C` [Example 84, 1-Methylethyl[(2S,4R)-1-acetyl-2-methyl-6-(4-methyl-1H-imidazol-1-yl)-1,2,3,4-tetrahydro-4-quinolinyl]carbamate] here?
**A.** ≤ 31.6 µM

**Q.** For `CC(=O)N1c2ccc(-c3nc(CN)no3)cc2[C@H](NC(=O)OC(C)C)C[C@@H]1C` [Example 69, 1-Methylethyl {(2S,4R)-1-acetyl-6-[3-(aminomethyl)-1,2,4-oxadiazol-5-yl]-2-methyl-1,2,3,4-tetrahydro-4-quinolinyl}carbamate hydrochloride], which IC50 is on record?
**A.** ≤ 31.6 µM

What follows are molecules tested on TNFα (assay: LPS Stimulated Whole Blood Measuring TNFα Levels Assay). Conditions: 24 h, LPS 200 ng/ml, immunoassay, read-out: pIC50, TNFα levels in LPS stimulated whole blood (converted).
Type: cell-based
Protocol: LPS Stimulated Whole Blood Measuring TNFα Levels Assay
as §1, with “TNFα.” for “IL-6.”
Compounds to be tested are diluted to give a range of appropriate concentrations and 1 ul of the dilution stocks is added to wells of a 96 plate. Following addition of whole blood (130 ul) the plates are incubated at 37 degrees (5% CO2) for 30 min before the addition of 10 ul of 2.8 ug/ml lipopolysaccharides (LPS), diluted in complete RPMI 1640 (final concentration=200 ng/ml), to give a total volume of 140 ul per well. After further incubation for 24 hours at 37 degrees, 140 ul of PBS are added to each well. The plates are sealed, shaken for 10 minutes and then centrifuged (2500 rpm×10 min). 100 ul of the supernatant are removed and TNFα levels assayed by immunoassay (typically by MesoScale Discovery technology) either immediately or following storage at −20 degrees. Dose response curves for each compound was generated from the data and an IC50 value was calculated.

**Q.** For `CC(=O)N1c2ccc(-c3ccc(N4CCCCC4)nc3)cc2[C@@H](NC(=O)OC(C)C)C[C@H]1C` (racemic) [Example 11, 1-methylethyl {(cis)-1-acetyl-2-methyl-6-[6-(1-piperidinyl)-3-pyridinyl]-1,2,3,4-tetrahydro-4-quinolinyl}carbamate hydrochloride], which IC50 is on record?
**A.** ≤ 6.31 µM

**Q.** Which IC50 does the source give for `CC(=O)N1c2ccc(-c3ccc(N4CCOCC4)nc3)cc2[C@@H](NC(=O)OC(C)C)C[C@H]1C` (racemic) [Example 10, 1-methylethyl {(cis)-1-acetyl-2-methyl-6-[6-(4-morpholinyl)-3-pyridinyl]-1,2,3,4-tetrahydro-4-quinolinyl}carbamate hydrochloride] here?
**A.** ≤ 6.31 µM

**Q.** Which IC50 does the source give for `CC(=O)N1c2ccc(-c3ncc(CN4CCCCC4)s3)cc2[C@@H](NC(=O)OC(C)C)C[C@H]1C` (racemic) [Example 52, 1-methylethyl {(cis)-1-acetyl-2-methyl-6-[5-(1-piperidinylmethyl)-1,3-thiazol-2-yl]-1,2,3,4-tetrahydro-4-quinolinyl}carbamate hydrochloride] here?
**A.** ≤ 6.31 µM

**Q.** Which IC50 does the source give for `CC(=O)N1c2ccc(-c3cnc(N4CCCCC4)nc3)cc2[C@@H](NC(=O)OC(C)C)C[C@H]1C` (racemic) [Example 49, 1-methylethyl {(cis)-1-acetyl-2-methyl-6-[2-(1-piperidinyl)-5-pyrimidinyl]-1,2,3,4-tetrahydro-4-quinolinyl}carbamate hydrochloride] here?
**A.** ≤ 6.31 µM

**Q.** Which IC50 does the source give for `CC(=O)N1c2ccc(-c3ccc(CN4CCCCC4)cc3)cc2[C@@H](NC(=O)OC(C)(C)C)C[C@H]1C` (racemic) [Example 17, 1,1-dimethylethyl {(cis)-1-acetyl-2-methyl-6-[4-(1-piperidinylmethyl)phenyl]-1,2,3,4-tetrahydro-4-quinolinyl}carbamate] here?
**A.** ≤ 6.31 µM

**Q.** For `CC(=O)N1c2ccc(Br)cc2[C@@H](NC(=O)OC2CCC2)C[C@H]1C` (racemic) [Example 33, cyclobutyl[(cis)-1-acetyl-6-bromo-2-methyl-1,2,3,4-tetrahydro-4-quinolinyl]carbamate], which IC50 is on record?
**A.** ≤ 6.31 µM

**Q.** `CC(=O)N1c2ccc(-c3ccc(CN4CCCCC4)cc3)cc2[C@H](N(C)C(=O)OC(C)C)C[C@@H]1C` (racemic) [Example 42, formic acid-1-methylethyl {(cis)-1-acetyl-2-methyl-6-[4-(1-piperidinylmethyl)phenyl]-1,2,3,4-tetrahydro-4-quinolinyl}methylcarbamate (1:1)] was tested. Which IC50 did it give?
**A.** ≤ 6.31 µM

**Q.** How did the IC50 turn out when `CC(=O)N1c2ccc(-c3cc(CN4CCCCC4)co3)cc2[C@@H](NC(=O)OC(C)C)C[C@H]1C` (racemic) [Example 18, 1-methylethyl {(cis)-1-acetyl-2-methyl-6-[4-(1-piperidinylmethyl)-2-furanyl]-1,2,3,4-tetrahydro-4-quinolinyl}carbamate] was run?
**A.** ≤ 6.31 µM

**Q.** With `CC(=O)N1c2ccc(-c3cnn(CCN4CCCCC4)c3)cc2[C@@H](NC(=O)OC(C)C)C[C@H]1C` (racemic) [Example 46, 1-methylethyl((cis)-1-acetyl-2-methyl-6-{1-[2-(1-piperidinyl)ethyl]-1H-pyrazol-4-yl}-1,2,3,4-tetrahydro-4-quinolinyl)carbamate hydrochloride] as the molecule, how does the IC50 read?
**A.** ≤ 6.31 µM

**Q.** How did the IC50 turn out when `CC(=O)N1c2ccc(-c3csc(CN4CCCCC4)n3)cc2[C@@H](NC(=O)OC(C)C)C[C@H]1C` (racemic) [Example 41, 1-methylethyl {(cis)-1-acetyl-2-methyl-6-[2-(1-piperidinylmethyl)-1,3-thiazol-4-yl]-1,2,3,4-tetrahydro-4-quinolinyl}carbamate] was run?
**A.** ≤ 6.31 µM

**Q.** How did the IC50 turn out when `CC(=O)N1c2ccc(-c3ccc(CO)cc3)cc2[C@H](NC(=O)OC(C)C)C[C@@H]1C` (relative stereo) [Example 15, 1-methylethyl {(cis)-1-acetyl-6-[4-(hydroxymethyl)phenyl]-2-methyl-1,2,3,4-tetrahydro-4-quinolinyl}carbamate] was run?
**A.** ≤ 6.31 µM

**Q.** For `CC(=O)N1c2ccc(-c3ccc(N(C)C)nc3)cc2[C@@H](NC(=O)OC(C)C)C[C@H]1C` (racemic) [Example 48, 1-methylethyl {(cis)-1-acetyl-6-[6-(dimethylamino)-3-pyridinyl]-2-methyl-1,2,3,4-tetrahydro-4-quinolinyl}carbamate hydrochloride], which IC50 is on record?
**A.** ≤ 6.31 µM
